Like-named read-outs stand apart in the source and are kept apart here.

Assay [1] concerns the target T1, Fatty acid amide hydrolase (FAAH) (Rattus norvegicus, UniProt P97612).
T1 sequence (P97612 1-579): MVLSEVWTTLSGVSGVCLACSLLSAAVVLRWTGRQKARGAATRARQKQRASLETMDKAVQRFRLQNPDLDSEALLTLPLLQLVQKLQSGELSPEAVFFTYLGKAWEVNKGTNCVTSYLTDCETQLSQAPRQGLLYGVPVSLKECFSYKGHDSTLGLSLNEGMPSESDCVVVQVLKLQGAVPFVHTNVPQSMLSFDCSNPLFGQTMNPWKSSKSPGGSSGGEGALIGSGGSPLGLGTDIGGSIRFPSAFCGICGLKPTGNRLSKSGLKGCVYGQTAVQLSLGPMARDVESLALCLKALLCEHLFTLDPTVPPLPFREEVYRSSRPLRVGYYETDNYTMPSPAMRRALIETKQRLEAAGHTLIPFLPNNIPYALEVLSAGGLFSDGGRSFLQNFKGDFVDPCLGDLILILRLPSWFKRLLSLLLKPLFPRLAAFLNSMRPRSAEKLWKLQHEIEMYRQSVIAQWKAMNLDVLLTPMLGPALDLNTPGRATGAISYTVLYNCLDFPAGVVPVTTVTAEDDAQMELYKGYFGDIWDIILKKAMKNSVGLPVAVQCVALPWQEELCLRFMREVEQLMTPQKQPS
Kind of assay: Fatty acid amide hydrolase (FAAH) inhibition, quantitation of labelled ethanolamine. Format: biochemical, Wistar Rat. The conditions noted are these: reference compound, concurrent.

Assay [2] concerns the target T1, Fatty acid amide hydrolase (FAAH). The conditions noted are these: reference compound, historical value; cited from earlier work.

As usually defined, the IC50 is the concentration that gives 50% inhibition. With `CCCCCCCC/C=C\CCCCCCCC(=O)C(F)(F)F` [Oleyl Trifluormethyl Ketone], the IC50 in assay [1] (batch 144029) was 23.5 nM; in assay [1] (batch 144988), 35.5 nM; in assay [2] it was 29 nM.

These data come from patent US20080213415A1, “Treatment of Glaucoma and Diabetic Retinopathy with Morinda Citrifolia Enhanced Formulations” (priority 2007, published 2008).
